The assay addresses ανβ6 (Homo sapiens, UniProt P06756+P18564). Put plainly: Cell adhesion assay, αvβ6 integrin. Type of assay: cell-based. As to conditions: cell adhesion data; read-out: ανβ6 IC50. As for the experimental part: The assays were performed as described in the literature (P. A. Procopiou, N. A. Anderson, J. Barrett, T. N. Barrett, M. H. J. Crawford, B. J. Fallon, A. P. Hancock, J. Le, S. Lemma, R. P. Marshall, J. Morrell, J. M. Pritchard, J. E. Rowedder, P. Saklatvala, R. J. Slack, S. L. Sollis, C. J. Suckling, L. R. Thorp, G. Vitulli, et al., J. Med. Chem. 2018, 61, 8417-8443; S. B. Ludbrook, S. T. Barry, C. J. Delves, C. M. T. Horgan, Biochem. J. 2003, 369, 311-318).

Bounds are passed on as bounds.

The values that follow come from patent US12630548B2, “Azetidine derivatives for the treatment of integrin associated diseases” (The University of Nottingham, priority 2020, dated 2026).

ανβ6, sequence (P06756 31-889 limits assumed): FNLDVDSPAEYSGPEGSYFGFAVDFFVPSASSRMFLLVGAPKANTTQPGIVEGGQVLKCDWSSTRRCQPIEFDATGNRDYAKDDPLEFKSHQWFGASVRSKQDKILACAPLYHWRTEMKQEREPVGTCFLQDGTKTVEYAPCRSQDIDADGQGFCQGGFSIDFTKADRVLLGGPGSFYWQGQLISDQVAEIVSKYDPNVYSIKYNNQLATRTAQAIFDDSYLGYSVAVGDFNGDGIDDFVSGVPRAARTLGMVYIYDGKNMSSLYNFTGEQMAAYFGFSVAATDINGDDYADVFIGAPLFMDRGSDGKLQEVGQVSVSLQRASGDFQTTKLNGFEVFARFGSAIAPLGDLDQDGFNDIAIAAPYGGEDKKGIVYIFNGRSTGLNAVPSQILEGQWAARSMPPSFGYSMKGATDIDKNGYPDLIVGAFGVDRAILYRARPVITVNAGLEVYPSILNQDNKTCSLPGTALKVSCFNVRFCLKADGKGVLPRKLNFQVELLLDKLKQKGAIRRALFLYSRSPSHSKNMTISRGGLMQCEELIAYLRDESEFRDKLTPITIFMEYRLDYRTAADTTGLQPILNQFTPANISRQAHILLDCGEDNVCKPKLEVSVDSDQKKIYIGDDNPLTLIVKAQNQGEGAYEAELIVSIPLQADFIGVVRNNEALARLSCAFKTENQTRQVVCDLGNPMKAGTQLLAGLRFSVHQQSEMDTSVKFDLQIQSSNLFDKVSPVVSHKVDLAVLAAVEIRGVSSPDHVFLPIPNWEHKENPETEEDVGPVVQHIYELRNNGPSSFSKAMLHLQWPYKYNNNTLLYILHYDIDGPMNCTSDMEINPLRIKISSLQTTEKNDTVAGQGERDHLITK
ανβ6, sequence (P06756 891-1048 limits assumed): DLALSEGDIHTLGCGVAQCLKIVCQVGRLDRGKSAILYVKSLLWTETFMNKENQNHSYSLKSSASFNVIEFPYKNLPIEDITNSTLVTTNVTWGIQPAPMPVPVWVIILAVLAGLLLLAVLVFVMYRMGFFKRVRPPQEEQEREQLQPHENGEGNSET
ανβ6, sequence (P18564 22-788): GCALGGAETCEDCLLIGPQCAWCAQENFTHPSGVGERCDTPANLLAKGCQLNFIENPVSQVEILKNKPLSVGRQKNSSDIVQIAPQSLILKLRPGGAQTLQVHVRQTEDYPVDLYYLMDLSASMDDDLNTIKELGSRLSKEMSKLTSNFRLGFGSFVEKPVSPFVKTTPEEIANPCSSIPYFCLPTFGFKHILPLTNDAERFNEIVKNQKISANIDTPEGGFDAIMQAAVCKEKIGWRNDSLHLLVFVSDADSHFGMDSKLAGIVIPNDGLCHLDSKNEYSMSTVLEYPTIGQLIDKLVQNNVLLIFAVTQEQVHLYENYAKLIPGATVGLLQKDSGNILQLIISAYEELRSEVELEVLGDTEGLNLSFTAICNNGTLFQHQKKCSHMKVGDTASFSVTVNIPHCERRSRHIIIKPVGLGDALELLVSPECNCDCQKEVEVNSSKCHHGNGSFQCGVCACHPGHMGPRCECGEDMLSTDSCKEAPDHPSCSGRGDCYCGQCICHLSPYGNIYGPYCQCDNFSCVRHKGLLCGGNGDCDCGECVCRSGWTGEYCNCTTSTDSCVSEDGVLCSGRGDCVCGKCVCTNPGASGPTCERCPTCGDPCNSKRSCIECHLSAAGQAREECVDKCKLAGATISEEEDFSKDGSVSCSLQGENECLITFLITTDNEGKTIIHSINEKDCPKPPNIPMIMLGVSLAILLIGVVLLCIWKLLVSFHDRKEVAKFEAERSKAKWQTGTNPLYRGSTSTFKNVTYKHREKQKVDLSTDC

Turning to `Cc1cc(Cl)cc(S(=O)(=O)N2CC(C(=O)NC(CNC(=O)CCCCc3ccc4c(n3)NCCC4)C(=O)O)C2)c1` (racemic) [Example 13, 2-(1-(3-chloro-5-methylbenzenesulfonyl)azetidine-3-carboxamido)-3-(5-(5,6,7,8-tetrahydro-1,8-naphthyridin-2-yl)pentanamido)propanoic acid], the IC50 was < 250 nM.

For the compound `CCc1cccc(S(=O)(=O)N2CC(C(=O)NC(CNC(=O)CCCCc3ccc4c(n3)NCCC4)C(=O)O)C2)c1` (racemic) [Example 14, 2-(1-(3-ethylbenzenesulfonyl)azetidine-3-carboxamido)-3-(5-(5,6,7,8-tetrahydro-1,8-naphthyridin-2-yl)pentanamido)propanoic acid], the IC50 is < 250 nM.

As to `Cc1cccc(S(=O)(=O)N2CC(C)(C(=O)NC(CNC(=O)CCCCc3ccc4c(n3)NCCC4)C(=O)O)C2)c1` (racemic) [Example 15, 2-(3-methyl-1-(3-methylbenzenesulfonyl)azetidine-3-carboxamido)-3-(5-(5,6,7,8-tetrahydro-1,8-naphthyridin-2-yl)pentanamido)propanoic acid], the IC50 is < 250 nM.

With `CCC1(C(=O)NC(CNC(=O)CCCCc2ccc3c(n2)NCCC3)C(=O)O)CN(S(=O)(=O)c2cccc(C)c2)C1` (racemic) [Example 16, 2-(3-ethyl-1-(3-methylbenzenesulfonyl)azetidine-3-carboxamido)-3-(5-(5,6,7,8-tetrahydro-1,8-naphthyridin-2-yl)pentanamido)propanoic acid], the IC50 was < 250 nM.

Take `Cc1cccc(S(=O)(=O)N2CC(F)(C(=O)NC(CNC(=O)CCCCc3ccc4c(n3)NCCC4)C(=O)O)C2)c1` (racemic) [Example 17, 2-(3-fluoro-1-(3-methylbenzenesulfonyl)azetidine-3-carboxamido)-3-(5-(5,6,7,8-tetrahydro-1,8-naphthyridin-2-yl)pentanamido)propanoic acid]: the IC50 was < 250 nM.

Regarding `Cn1cnc(S(=O)(=O)N2CC(C(=O)NC(CNC(=O)CCCCc3ccc4c(n3)NCCC4)C(=O)O)C2)c1` (racemic) [Example 18, 2-(1-((1-methyl-1H-imidazol-4-yl)sulfonyl)azetidine-3-carboxamido)-3-(5-(5,6,7,8-tetrahydro-1,8-naphthyridin-2-yl)pentanamido) propanoic acid], the IC50 was < 250 nM.

For the compound `Cn1cc(S(=O)(=O)N2CC(C(=O)NC(CNC(=O)CCCCc3ccc4c(n3)NCCC4)C(=O)O)C2)cn1` (racemic) [Example 19, 2-(1-((1-methyl-1H-pyrazol-4-yl)sulfonyl)azetidine-3-carboxamido)-3-(5-(5,6,7,8-tetrahydro-1,8-naphthyridin-2-yl)pentanamido)propanoic acid], the IC50 is < 250 nM.

On to `O=C(CCCCc1ccc2c(n1)NCCC2)NCC(NC(=O)C1CN(S(=O)(=O)c2ccc(Cl)s2)C1)C(=O)O` (racemic) [Example 20, 2-(1-((5-chlorothiophen-2-yl)sulfonyl)azetidine-3-carboxamido)-3-(5-(5,6,7,8-tetrahydro-1,8-naphthyridin-2-yl)pentanamido)propanoic acid], for which the IC50 is < 250 nM.

For the compound `O=C(CCCCc1ccc2c(n1)NCCC2)NCC(NC(=O)C1CN(S(=O)(=O)c2cccnc2)C1)C(=O)O` (racemic) [Example 21, 2-(1-(pyridin-3-ylsulfonyl)azetidine-3-carboxamido)-3-(5-(5,6,7,8-tetrahydro-1,8-naphthyridin-2-yl)pentanamido)propanoic acid], the IC50 was < 250 nM.

Consider `Cc1nc(S(=O)(=O)N2CC(C(=O)NC(CNC(=O)CCCCc3ccc4c(n3)NCCC4)C(=O)O)C2)cn1C` (racemic) [Example 22, 2-(1-((1,2-dimethyl-1H-imidazol-4-yl)sulfonyl)azetidine-3-carboxamido)-3-(5-(5,6,7,8-tetrahydro-1,8-naphthyridin-2-yl)pentanamido)propanoic acid], for which the IC50 was < 250 nM.

`O=C(CCCCc1ccc2c(n1)NCCC2)NC[C@H](NC(=O)C1CN(S(=O)(=O)c2cc(Cl)cc(Cl)c2)C1)C(=O)O` [Example 23, (S)-2-(1-(3,5-Dichlorobenzenesulfonyl)azetidine-3-carboxamido)-3-(5-(5,6,7,8-tetrahydro-1,8-naphthyridin-2-yl)pentanamido)propanoic acid]: the IC50 is < 250 nM.

As to `Cc1cc(C)cc(S(=O)(=O)N2CC(C(=O)N[C@@H](CNC(=O)CCCCc3ccc4c(n3)NCCC4)C(=O)O)C2)c1` [Example 24, (S)-2-(1-(3,5-Dimethylbenzenesulfonyl)azetidine-3-carboxamido)-3-(5-(5,6,7,8-tetrahydro-1,8-naphthyridin-2-yl)pentanamido)propanoic acid], the IC50 is < 250 nM.

For `Cc1cc(Cl)cc(S(=O)(=O)N2CC(C(=O)N[C@@H](CNC(=O)CCCCc3ccc4c(n3)NCCC4)C(=O)O)C2)c1` [Example 25, (S)-2-(1-(3-Chloro-5-methylbenzenesulfonyl)azetidine-3-carboxamido)-3-(5-(5,6,7,8-tetrahydro-1,8-naphthyridin-2-yl)pentanamido)propanoic acid], the IC50 is < 250 nM.

Consider `CCc1cccc(S(=O)(=O)N2CC(C(=O)N[C@@H](CNC(=O)CCCCc3ccc4c(n3)NCCC4)C(=O)O)C2)c1` [Example 26, (S)-2-(1-(3-Ethylbenzenesulfonyl)azetidine-3-carboxamido)-3-(5-(5,6,7,8-tetrahydro-1,8-naphthyridin-2-yl)pentanamido)propanoic acid], for which the IC50 is < 250 nM.

Regarding `O=C(CCCCc1ccc2c(n1)NCCC2)NC[C@H](NC(=O)C1CN(S(=O)(=O)c2cccc(Cl)c2)C1)C(=O)O` [Example 27, (S)-2-(1-(3-Chlorobenzenesulfonyl)azetidine-3-carboxamido)-3-(5-(5,6,7,8-tetrahydro-1,8-naphthyridin-2-yl)pentanamido)propanoic acid], the IC50 was < 250 nM.

`COc1cccc(S(=O)(=O)N2CC(C(=O)N[C@@H](CNC(=O)CCCCc3ccc4c(n3)NCCC4)C(=O)O)C2)c1` [Example 28, (S)-2-(1-(3-Methoxybenzenesulfonyl)azetidine-3-carboxamido)-3-(5-(5,6,7,8-tetrahydro-1,8-naphthyridin-2-yl)pentanamido)propanoic acid]: the IC50 is < 250 nM.

Take `O=C(CCCCc1ccc2c(n1)NCCC2)NC[C@H](NC(=O)C1CN(S(=O)(=O)c2cccc(C(F)F)c2)C1)C(=O)O` [Example 29, (S)-2-(1-(3-(Difluoromethyl)benzenesulfonyl)azetidine-3-carboxamido)-3-(5-(5,6,7,8-tetrahydro-1,8-naphthyridin-2-yl)pentanamido)propanoic acid]: the IC50 was < 250 nM.

Take `O=C(CCCCc1ccc2c(n1)NCCC2)NC[C@H](NC(=O)C1CN(S(=O)(=O)c2cccc(C3CC3)c2)C1)C(=O)O` [Example 30, (S)-2-(1-(3-Cyclopropylbenzenesulfonyl)azetidine-3-carboxamido)-3-(5-(5,6,7,8-tetrahydro-1,8-naphthyridin-2-yl)pentanamido)propanoic acid]: the IC50 was < 250 nM.

As to `O=C(CCCCc1ccc2c(n1)NCCC2)NC[C@H](NC(=O)C1CN(S(=O)(=O)c2ccc3c(c2)CCC3)C1)C(=O)O` [Example 31, (S)-2-(1-((2,3-Dihydro-1H-inden-5-yl)sulfonyl)azetidine-3-carboxamido)-3-(5-(5,6,7,8-tetrahydro-1,8-naphthyridin-2-yl)pentanamido)propanoic acid], the IC50 was < 250 nM.

For the compound `COc1ccc(S(=O)(=O)N2CC(C(=O)N[C@@H](CNC(=O)CCCCc3ccc4c(n3)NCCC4)C(=O)O)C2)cc1OC` [Example 32, (S)-2-(1-(3,4-Dimethoxybenzenesulfonyl)azetidine-3-carboxamido)-3-(5-(5,6,7,8-tetrahydro-1,8-naphthyridin-2-yl)pentanamido)propanoic acid], the IC50 was < 250 nM.

As for `O=C(CCCCc1ccc2c(n1)NCCC2)NC[C@H](NC(=O)C1CN(S(=O)(=O)c2cccc(C3=CCOCC3)c2)C1)C(=O)O` [Example 33], the IC50 is < 250 nM.

In the case of `O=C(CCCCc1ccc2c(n1)NCCC2)NC[C@H](NC(=O)C1CN(S(=O)(=O)c2cccc(N3CCNCC3)c2)C1)C(=O)O` [Example 34, (S)-2-(1-(3-(Piperazin-1-yl)benzenesulfonyl)azetidine-3-carboxamido)-3-(5-(5,6,7,8-tetrahydro-1,8-naphthyridin-2-yl)pentanamido)propanoic acid], the IC50 is < 250 nM.

Regarding `CN(C)CCOc1cccc(S(=O)(=O)N2CC(C(=O)N[C@@H](CNC(=O)CCCCc3ccc4c(n3)NCCC4)C(=O)O)C2)c1` [Example 35], the IC50 was < 250 nM.

For the compound `Cc1cccc(S(=O)(=O)N2CC(C(=O)N[C@@H](CC(=O)NCCCCc3ccc4c(n3)NCCC4)C(=O)O)C2)c1` [Example 36, N4-(4-(5,6,7,8-Tetrahydro-1,8-naphthyridin-2-yl)butyl)-N2-(1-(3-methylbenzenesulfonyl)azetidine-3-carbonyl)-L-asparagine], the IC50 was < 250 nM.

On to `Cc1cccc(S(=O)(=O)N2CC(C(=O)N[C@@H](CCN(C)CCCCc3ccc4c(n3)NCCC4)C(=O)O)C2)c1` [Example 37, (S)-4-(Methyl(4-(5,6,7,8-tetrahydro-1,8-naphthyridin-2-yl)butyl)amino)-2-(1-(3-methylbenzenesulfonyl)azetidine-3-carboxamido)butanoic acid], for which the IC50 is < 250 nM.

With `CN(CCCCc1ccc2c(n1)NCCC2)CC[C@H](NC(=O)C1CN(S(=O)(=O)c2ccccc2)C1)C(=O)O` [Example 38, (S)-4-(Methyl(4-(5,6,7,8-tetrahydro-1,8-naphthyridin-2-yl)butyl)amino)-2-(1-(phenylsulfonyl)azetidine-3-carboxamido)butanoic acid], the IC50 was < 250 nM.
